Measurements as given in patent publication US20100297194A1, “FORMULATION FOR ORAL ADMINISTRATION OF APOPTOSIS PROMOTER” (priority 2009, published 2010).
Like-named read-outs stand apart in the source and are kept apart here. One block for each molecule: values may come before it.

How the values were obtained:
[1] = rat; 2 mg/ml solution in PEG-400/DMSO; cited from earlier work
[2] = drug solubility in ternary excipient systems (Example 2); format: physicochemical; design: key: ✓: vehicle miscible, or drug fully dissolved in vehicle; X: vehicle immiscible or miscible but turbid, or residual solids present (due to undissolved drug or precipitation); details: 10% salt, 20% free base, listed as ABT-263 free base
Text: Solvents evaluated included Labrafil M 1944 CS™, Imwitor 742™ oleic acid, Capmul PG-8™, Capmul PG-12™, Lauroglycol 90™ and Phosal 53 MCT™. Surfactants evaluated included Tween™ 80, Cremophor RH40™, Gelucire 44/14™ and Labrasol™.

[3] = monkey; similar solution in PEG-400/DMSO; cited from earlier work
[4] = solubility in lipid solvents (Example 1); format: physicochemical; details: ambient conditions;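 note: solubility in mg/g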
Description: Solubility of ABT-263 parent (free base, crystalline Form I) and ABT-263 bis-HCl salt was tested in a variety of lipid solvents and solvent mixtures in ambient conditions. “PE-91” is Phosal 53 MCT™+ethanol, 9:1 by volume. “LOT-343” is Labrafil M 1944 CS™+oleic acid+Tween 80™, 30:40:30 by weight.
In some cases, indicated in Table 4 by an asterisk (*), solubility was initially high but precipitation occurred upon standing.

[5] = oral bioavailability in a rat model; details: in vivo, in 90% phosphatidylcholine+medium chain triglycerides 53/29 and 10% ethanol

ABT-263 solubility ([2]; ILC (Imwitor 742/Labrafil M 1944 CS/Cremophor RH40) 50:40:10 by weight): X
ABT-263 solubility ([2]; ILC (Imwitor 742/Labrafil M 1944 CS/Cremophor RH40) 60:30:10 by weight): X
ABT-263 solubility ([2]; ILL (Imwitor 742/Labrafil M 1944 CS/Labrasol) 40:40:20 by weight): X
ABT-263 solubility ([2]; ILL (Imwitor 742/Labrafil M 1944 CS/Labrasol) 50:30:20 by weight): X
ABT-263 solubility ([2]; ILL (Imwitor 742/Labrafil M 1944 CS/Labrasol) 50:40:10 by weight): X
ABT-263 solubility ([2]; ILL (Imwitor 742/Labrafil M 1944 CS/Labrasol) 60:30:10 by weight): X
ABT-263 solubility ([2]; LIT (Labrafil M 1944 CS/Imwitor 742/Tween 80) 30:40:30 by weight): X
ABT-263 solubility ([2]; LIT (Labrafil M 1944 CS/Imwitor 742/Tween 80) 40:30:30 by weight): X
ABT-263 solubility ([2]; LLL (Lauroglycol 90/Labrafil M 1944 CS/Labrasol) 50:40:10 by weight): X
ABT-263 solubility ([2]; LLL (Lauroglycol 90/Labrafil M 1944 CS/Labrasol) 60:30:10 by weight): X
Solubility ([4]; in Cremophor RH40): >226 mg/g
Solubility ([4]; in LOT-343 (Labrafil M 1944 CS+oleic acid+Tween 80 30:40:30 by weight)): >479 mg/g
Solubility ([4]; in Labrafil M 1944 CS, listed as ABT-263 parent): >265 mg/g
Solubility ([4]; in Labrafil M 2125 CS, listed as ABT-263 parent): >290 mg/g
Solubility ([4]; in Labrasol, listed as ABT-263 parent): >242 mg/g
Solubility ([4]; in Lipoid S75 MCT, listed as ABT-263 parent): 150 to 200 mg/g
Solubility ([4]; in Miglyol 810, listed as ABT-263 parent): <76 mg/g
Solubility ([4]; in PE-91 (Phosal 53 MCT+ethanol 9:1 by volume), listed as ABT-263 parent): >250 mg/g
Solubility ([4]; in PEG-400, listed as ABT-263 parent): >200 mg/g
Solubility ([4]; in Phosal 53 MCT): >300 mg/g
Solubility ([4]; in Tween 20, listed as ABT-263 parent): >256 mg/g
Solubility ([4]; in Tween 80, listed as ABT-263 parent): >256 mg/g
Solubility ([4]; in corn oil, listed as ABT-263 parent): <86 mg/g
Solubility ([4]; in oleic acid, listed as ABT-263 parent): >514 mg/g
Solubility ([4]; in poloxamer 124, listed as ABT-263 parent): >231 mg/g
Solubility ([4]; in sesame oil, listed as ABT-263 parent): <75 mg/g
Structure (SMILES): CC1(C)CCC(c2ccc(Cl)cc2)=C(CN2CCN(c3ccc(C(=O)NS(=O)(=O)c4ccc(N[C@H](CCN5CCOCC5)CSc5ccccc5)c(S(=O)(=O)C(F)(F)F)c4)cc3)CC2)C1 [ABT-263, N-(4-(4-((2-(4-chlorophenyl)-5,5-dimethyl-1-cyclohex-1-en-1-yl)methyl)piperazin-1-yl)benzoyl)-4-(((1R)-3-(morpholin-4-yl)-1-((phenylsulfanyl)methyl)propyl)amino)-3-((trffluoromethyl)sulfonyl)benzene-sulfonamide]
oral bioavailability [1]: around 20%
oral bioavailability [3]: around 20%

bioavailability [5]: 3.3%
Structure (SMILES): CN(C)CC[C@H](CSc1ccccc1)Nc1ccc(S(=O)(=O)NC(=O)c2ccc(N3CCN(Cc4ccccc4-c4ccc(Cl)cc4)CC3)cc2)cc1[N+](=O)[O-] [ABT-737, N-(4-(4-((4′-chloro-(1,1′-biphenyl)-2-yl)methyl)piperazin-1-yl)benzoyl)-4-(((1R)-3-(dimethylamino)-1-((phenylsulfanyl)methyl)propyl)amino)-3-nitrobenzenesulfonamide]
